Legend:
women with endometriosis = assay: Example 7: bone mineral density and serum hormones; format: in vivo, human; conditions: for percent change of bone mineral density from baseline: 12 wk; for week from which median serum estradiol was below LLQ: Compound 1 40 mg, leuprolide acetate 3.75 mg/4 wk
Text: Subjects were diagnosed with endometriosis within the 5 years before screening and had dysmenorrhea and pelvic pain, of which either 1 or both was at least “moderate” as determined by the investigator using the Biberoglu & Behrman (B&B) scale. […] Secondary endpoints included VAS score for pelvic pain, dysmenorrhea, and dyspareunia during the treatment period.

[1] = test system: LH, FSH, estradiol (E2), progesterone (P), CA125; assay: Example 8A: serum LH, FSH, E2, P and CA125; format: in vivo, human; conditions: for week at which median serum E2 decreased to LLQ: Compound 1 40 mg, leuprolide acetate 3.75 mg/4 wk
Text: Study participants were premenopausal (≥20 years) Japanese women with endometriosis (EM)-associated pain who completed a preceding 12-week study and were eligible to continue for an additional 12-week treatment were enrolled. The participants has confirmed normal regular menstrual cycles (25 to 38 days per cycle) and diagnosed to have EM and EM-related dysmenorrhea and pelvic pain of at least moderate severity as determined by the physician B&B scale. The primary endpoint was the safety including assessment of change in bone mineral density (BMD) using dual energy x-ray absorptiometry, adverse events, vital signs, weight, 12-lead electrocardiograms, and clinical laboratory tests. […] Baseline characteristics were similar between randomized patients and all patients who entered the extension study.

[2] = test system: women with uterine fibroids; assay: Example 10: safety
Text: Secondary endpoints for safety included: Adverse events (AEs), vital signs, weight, standard 12-lead electrocardiogram (ECG), clinical laboratory tests, BMD, biochemical bone metabolism markers (serum N-telopeptide [NTELOP] and bone specific alkaline phosphatase [BAP])

Compound: CONC(=O)Nc1ccc(-c2sc3c(c2CN(C)C)c(=O)n(-c2ccc(OC)nn2)c(=O)n3Cc2c(F)cccc2F)cc1 [Compound 1, N-(4-(1-(2,6-difluorobenzyl)-5-((dimethylamino)methyl)-3-(6-methoxy-3-pyridazinyl)-2,4-dioxo-1,2,3,4-tetrahydrothieno[2,3-d]pyrimidin-6-yl)phenyl)-N′-methoxyurea]
- percent change of bone mineral density from baseline (women with endometriosis; 10 mg): −0.95±1.875%
- percent change of bone mineral density from baseline (women with endometriosis; 20 mg): −1.34±2.087%
- percent change of bone mineral density from baseline (women with endometriosis; 40 mg): −2.08±2.220%
- week from which median serum estradiol was below LLQ (women with endometriosis): 2 Week
- median change in serum E2 from baseline ([1]; 10 mg, Week 24): 1.0 pg/mL
- median change in serum FSH from baseline ([1]; 10 mg, Week 24): −0.630 mIU/mL
- median change in serum LH from baseline ([1]; 10 mg, Week 24): 0.300 mIU/mL
- median change in serum progesterone (P) from baseline ([1]; 10 mg, Week 24): 0.000 ng/mL
- subjects with CA125 less than or equal to 35 U/mL ([1]; 10 mg, Week 24): 75.3%
- median change in serum E2 from baseline ([1]; 20 mg, Week 24): -9.0 pg/mL
- median change in serum FSH from baseline ([1]; 20 mg, Week 24): −0.990 mIU/mL
- median change in serum LH from baseline ([1]; 20 mg, Week 24): −0.785 mIU/mL
- median change in serum progesterone (P) from baseline ([1]; 20 mg, Week 24): 0.005 ng/mL
- subjects with CA125 less than or equal to 35 U/mL ([1]; 20 mg, Week 24): 81.1%
- median change in serum E2 from baseline ([1]; 40 mg, Week 24): -39.0 pg/mL
- median change in serum FSH from baseline ([1]; 40 mg, Week 24): −3.550 mIU/mL
- median change in serum LH from baseline ([1]; 40 mg, Week 24): −2.480 mIU/mL
- median change in serum progesterone (P) from baseline ([1]; 40 mg, Week 24): -0.080 ng/mL
- subjects with CA125 less than or equal to 35 U/mL ([1]; 40 mg, Week 24): 88.5%
- week at which median serum E2 decreased to LLQ [1]: 2 Week
- AE: Arthralgia ([2]; 24 wk): 8(5.8) n(%)
- AE: Bone density decreased ([2]; 24 wk): 6(4.3) n(%)
- AE: Bone resorption test abnormal ([2]; 24 wk): 7(5.1) n(%)
- AE: Dizziness ([2]; 24 wk): 9(6.5) n(%)
- AE: Gamma-glutamyl transferase increased ([2]; 24 wk): 7(5.1) n(%)
- AE: Genital haemorrhage ([2]; 24 wk): 7(5.1) n(%)
- AE: Headache ([2]; 24 wk): 21(15.2) n(%)
- AE: Hot flush ([2]; 24 wk): 59(42.8) n(%)
- AE: Hyperhidrosis ([2]; 24 wk): 13(9.4) n(%)
- AE: Malaise ([2]; 24 wk): 8(5.8) n(%)
- AE: Menorrhagia ([2]; 24 wk): 34(24.6) n(%)
- AE: Metrorrhagia ([2]; 24 wk): 68(49.3) n(%)
- AE: Resorption bone increased ([2]; 24 wk): 7(5.1) n(%)
- AE: Somnolence ([2]; 24 wk): 7(5.1) n(%)
- AE: Viral upper respiratory tract infection ([2]; 24 wk): 39(28.3) n(%)
- AEs Leading to Study Drug Discontinuation ([2]; 24 wk): 9(6.5) n(%)
- Deaths ([2]; 24 wk): 0(0.0) n(%)
- SAEs Leading to Study Drug Discontinuation ([2]; 24 wk): 0(0.0) n(%)
- Serious Treatment-Emergent AEs ([2]; 24 wk): 0(0.0) n(%)
- Serious Treatment-Emergent AEs, Not Related ([2]; 24 wk): 0(0.0) n(%)
- Serious Treatment-Emergent AEs, Related ([2]; 24 wk): 0(0.0) n(%)
- Treatment-Emergent AEs ([2]; 24 wk): 131(94.9) n(%)
- Treatment-Emergent AEs, Not Related ([2]; 24 wk): 11(8.0) n(%)
- Treatment-Emergent AEs, Related ([2]; 24 wk): 120(87.0) n(%)
- AE leading to discontinuation: Abdominal pain ([2]; in vivo): 0(0.0) n(%)
- AE leading to discontinuation: Arthralgia ([2]; in vivo): 1(0.7) n(%)
- AE leading to discontinuation: Back pain ([2]; in vivo): 0(0.0) n(%)
- AE leading to discontinuation: Blood pressure increased ([2]; in vivo): 0(0.0) n(%)
- AE leading to discontinuation: Depression ([2]; in vivo): 1(0.7) n(%)
- AE leading to discontinuation: Drug eruption ([2]; in vivo): 0(0.0) n(%)
- AE leading to discontinuation: Fatigue ([2]; in vivo): 1(0.7) n(%)
- AE leading to discontinuation: Headache ([2]; in vivo): 1(0.7) n(%)
- AE leading to discontinuation: Hot flush ([2]; in vivo): 4(2.9) n(%)
- AE leading to discontinuation: Hypertension ([2]; in vivo): 0(0.0) n(%)
- AE leading to discontinuation: Malaise ([2]; in vivo): 1(0.7) n(%)
- AE leading to discontinuation: Nausea ([2]; in vivo): 0(0.0) n(%)
- AE leading to discontinuation: Pyrexia ([2]; in vivo): 0(0.0) n(%)
- AE leading to discontinuation: Tenosynovitis ([2]; in vivo): 1(0.7) n(%)
- AE leading to discontinuation: Tenosynovitis stenosans ([2]; in vivo): 1(0.7) n(%)
- ALP > 3 × ULN ([2]; in vivo): 0 (0.0) n (%)
- ALT > 3 × ULN ([2]; in vivo): 3 (2.2) n (%)
- ALT > 5 × ULN ([2]; in vivo): 1 (0.7) n (%)
- ALT and AST > 3 × ULN ([2]; in vivo): 2 (1.4) n (%)
- ALT or AST > 3 × ULN with Tbili > 2 × ULN ([2]; in vivo): 0 (0.0) n (%)
- AST > 3 × ULN ([2]; in vivo): 2 (1.4) n (%)
- AST > 5 × ULN ([2]; in vivo): 0 (0.0) n (%)
- Any Markedly Abnormal LFT ([2]; in vivo): 3 (2.2) n (%)

Compound: CCNC(=O)[C@@H]1CCCN1C(=O)[C@H](CCCNC(=N)N)NC(=O)[C@H](CC(C)C)NC(=O)[C@@H](CC(C)C)NC(=O)[C@H](Cc1ccc(O)cc1)NC(=O)[C@H](CO)NC(=O)[C@H](Cc1c[nH]c2ccccc12)NC(=O)[C@H](Cc1c[nH]cn1)NC(=O)[C@@H]1CCC(=O)N1 [leuprolide acetate, reference compound]
- week from which median serum estradiol was below LLQ (women with endometriosis): 4 Week
- mean estradiol serum concentration four weeks after discontinuation (women with endometriosis; FIG. 162, relative to control (placebo)): only about one-fifth of the control
- median change in serum E2 from baseline ([1]; 3.75 mg sc/4 wk, Week 24): -40.0 pg/mL
- median change in serum FSH from baseline ([1]; 3.75 mg sc/4 wk, Week 24): −2.730 mIU/mL
- median change in serum LH from baseline ([1]; 3.75 mg sc/4 wk, Week 24): −3.140 mIU/mL
- median change in serum progesterone (P) from baseline ([1]; 3.75 mg sc/4 wk, Week 24): -0.070 ng/mL
- percent change from baseline in CA125 concentration ([1]; 3.75 mg sc/4 wk, Week 24): −54.15±46.359%
- subjects with CA125 less than or equal to 35 U/mL ([1]; 3.75 mg sc/4 wk, Week 24): 88.9%
- week at which median serum E2 decreased to LLQ [1]: 4 Week
- Deaths ([2]; 24 wk): 0(0.0) n(%)

Source: US11957684B2, “Treatment of heavy menstrual bleeding associated with uterine fibroids” (Sumitomo Pharma Switzerland GmbH, priority 2016, dated 2024)
